In patent US10702495B2, “Method and compositions for treating dystrophies and myotonia” (priority 2017, dated 2020):

How the values were obtained:
patients with myotonia = assay: Disease history: previous treatments for myotonia and myalgia (case reports); conditions: for effect of previous treatment on myotonia, patient 6: CLCN1-congenital myotonia; for effect of previous treatment on myotonia, patient 6 / outcome of previous treatment of myotonia, patient 2 / outcome of previous treatment of myalgia, patient 2: disease history; for outcome of previous treatment of myotonia, patient 2 / outcome of previous treatment of myalgia, patient 2: DM2
From the text: This person was diagnosed with DM2. As DM2-related comorbidities they have diabetes mellitus type 2 without diabetic neuropathy, and controlled paroxysmal atrial fibrillation. Their main muscular complaints have always been a severe grip myotonia and myotonia of the legs while walking, as well as persistent myalgia especially at lower back. In the last several years they developed a proximal and axial muscle weakness (MRC grade 4). […] After discussing potential risks and benefits, a compassionate use with low dose CBD/THC has been started.
This person was diagnosed with CLCN1-congenital myotonia. They have a severe therapy-resistant grip and generalized myotonia.

dystrophic mdx mice = conditions: injection; mostly via activation of TRPV1 and TRPA1; cited from earlier work

Q: With Cc1cccc(C)c1OCC(C)N (stereo not shown) [mexiletine] as the compound, how does the “effect of previous treatment on myotonia, patient 6” value (“effect … on myotonia, patient 6” for short) (patients with myotonia) read?
A: improved the myotonia

Q: What about the “outcome of previous treatment of myotonia, patient 2” value (from here on “outcome … of myotonia, patient 2”) (patients with myotonia) of the same compound?
A: suspended due to inefficacy and risk of cardiac arrhythmias

Q: And the “drug-related side effect of previous treatment, patient 6” value (patients with myotonia; resolved on drug discontinuation)?
A: severe major depression

Q: For COc1ccccc1OCC(O)COC(N)=O (stereo not shown) [methocarbamol], which “outcome of previous treatment of myalgia, patient 2” value (“outcome … of myalgia, patient 2” for short) (patients with myotonia) is on record?
A: unsuccessfully treated

Q: With CC(C)C[C@H](CN)CC(=O)O [pregabalin] as the compound, how does the “outcome … of myalgia, patient 2” value (patients with myotonia) read?
A: unsuccessfully treated

Q: And the “outcome … of myotonia, patient 2” value (patients with myotonia)?
A: suspended due to inefficacy and risk of cardiac arrhythmias

Q: Which “effect … on myotonia, patient 6” value (patients with myotonia) does the source give for NC(=O)N1c2ccccc2C=Cc2ccccc21 [carbamazepine] here?
A: no relevant improvement of myotonia was obtained

Q: And the “outcome … of myotonia, patient 2” value (patients with myotonia)?
A: suspended due to inefficacy and risk of cardiac arrhythmias

Q: For C=C(C)[C@@H]1CCC(C)=C[C@H]1c1c(O)cc(CCCCC)cc1O [CBD, Cannabidiol], which “myotube formation and inflammation” value (dystrophic mdx mice) is on record?
A: promoted myotube formation and reduced inflammation

Q: For O=C(NCC1CCCCN1)c1cc(OCC(F)(F)F)ccc1OCC(F)(F)F (stereo not shown) [flecainid], which “effect … on myotonia, patient 6” value (patients with myotonia) is on record?
A: no relevant improvement of myotonia was obtained

Q: Which “effect … on myotonia, patient 6” value (patients with myotonia) does the source give for Cc1ccc(C(=O)C(C)CN2CCCCC2)cc1 (stereo not shown) [tolperisone] here?
A: no relevant improvement of myotonia was obtained

Q: With CC(C)Cc1ccc(C(C)C(=O)O)cc1 (stereo not shown) [ibuprofen] as the compound, how does the “outcome … of myalgia, patient 2” value (patients with myotonia) read?
A: unsuccessfully treated

Q: For Nc1nnc(-c2cccc(Cl)c2Cl)c(N)n1 [lamotrigine], which “effect … on myotonia, patient 6” value (patients with myotonia) is on record?
A: no relevant improvement of myotonia was obtained
